Patent publication US10729636B2, “Compositions comprising peptide [sequence]” (NURITAS LIMITED, priority 2016, dated 2020)

Assays:
[1] = system: Human Dermal Fibroblasts (HDF); assay: Cell proliferation assay (BrDu), HDF; assay type: cell-based; details: HDF cells; 5, 0.5 or 0.05 μg/ml, 24 h; compared with untreated control; FIG. 1
Procedure: BrDu is incorporated into newly synthesised DNA strands of actively proliferating cells. Following partial denaturation of double stranded DNA, BrDu is detected immunochemically allowing the assessment of the population of cells which are synthesizing DNA.
Human Dermal Fibroblasts (HDF—Sigma 10605a) were seeded in a 96 well plate at 10,000 cells per well in DMEM containing 10% fetal calf serum (FCS), 1% Pen/strep, 1% L-glutamine and allowed to adhere for 24 h.
Following the initial 24 h incubation the cells were incubated with 5 μg/ml, 0.5 μg/ml or 0.05 μg/ml synthetic peptide for 24 h respectively.
After 18 h incubation with synthetic peptides 20 μl BrDu reagent was added to each well. At 24 h incubation the cells were fixed and the amount of […] was measured using the BrdU Cell Proliferation Assay, all steps were carried out according to the manufacturer's instructions.

HACAT cells = assay: Glucose uptake (2-DG), HACAT; assay type: cell-based; details: compared with untreated control, FIG. 5
Procedure: (§1) Glucose uptake in skeletal muscle cells was measured using 2-deoxyglucose (2-DG). 2-DG is taken up by glucose transporters and metabolized to 2-DG-6-phosphate (2-DG6P). The amount of accumulated non-metabolized 2-DG6P is proportional to glucose uptake by cells.
(§2) Following stimulation, the cells were incubated with 10 μl/well of 2-DG solution for 40 min and glucose uptake was measured using the ‘PrismColor Glucose Uptake Assay Kit’ (Molecutools), all steps were carried out according to the manufacturer's instructions. The experiment was repeated using HACAT cells.

GLUT-4 = GLUT-4 translocation (membrane fraction ELISA); assay type: cell-based, Human; details: HSKMC cells, 2 hrs, FIG. 8
Procedure: […] Upon completion of treatment, cell membrane proteins were collected. Briefly, cells were harvested from the wells with a cell scraper and centrifuged at 300×g for 5 min. The cell pellet was washed with 300 ul of cell wash solution and then re centrifuged at 300×g for 5 min. The supernatant was discarded and the cells resuspended in 1.5 ml of cell wash solution and transferred to a 2 ml centrifuge tube. The cells were then centrifuged at 300×g for 5 min and the supernatant discarded. 150 ul of permeabilization buffer was added to the cell pellet and vortexed briefly to obtain a homogenous cell suspension. The suspension was then incubated at 4° C. for 10 min with constant mixing. […] The supernatant containing solubilized membrane and membrane associated proteins fractions was transferred to a new tube and stored at −80° C. until ready for assessment.
GLUT-4 was assessed in the cell membrane fractions using a sandwich ELISA from LSBio. […] 50 ul of stop solution was added to each well and the optical density of the sample was determined using a microplate reader set to 450 nm. GLUT-4 concentration in the samples was calculated off the standard curve after generating a four-parameter logistic (4-PL) curve fit. Sample concentration read of the curve was then adjusted by multiplying the results by the dilution factor.

Human skeletal myoblasts = assay: Glucose uptake (2-DG), skeletal myoblasts; assay type: cell-based; details: 3 h, compared with untreated control
Procedure: as §1
Human skeletal myoblasts (Sigma 150-05a) were seeded in a 96 well plate at 10,000 cells per well in Skeletal Muscle Differentiation medium and allowed to differentiated for 72 h prior to experimentation.
The differentiated cells were serum starved for 24 h prior to stimulation with insulin or synthetic peptides. After starvation, the serum free media was removed, cells rinsed with Phosphate Buffered Saline (PBS) and media replaced with 100 μl of Krebs-Ringer-Phosphate-HEPES (KRPH) and incubated for 1 h.
The cells were then stimulated with 100 nM insulin for 30 minutes or 5 μg/ml, 0.5 μg/ml or 0.05 μg/ml synthetic peptide for 3 h respectively.
as §2

WKDEAGKPLVK [SEQ ID NO. 1]
increase: cell proliferation [1] | glucose uptake (HACAT cells) | GLUT4 translocation (GLUT-4; 0.05 ug/ml) | GLUT4 translocation (GLUT-4; 5 ug/ml) | glucose uptake (Human skeletal myoblasts; 0.5 μg/ml, FIG. 6) | glucose uptake (Human skeletal myoblasts; 5 μg/ml, FIG. 7)
